Source: PMC8802628, “Selective activation of PFKL suppresses the phagocytic oxidative burst” (Cell, 2021)

How the values were obtained:
[1] = system: primary human monocytes and human monocytic THP-1 cells; test: GSDMD-dependent pyroptosis, LDH release; type: cell-based; conditions: induced by nigericin, cytoplasmic LPS, or cytoplasmic poly(dA-dT)
Procedure: Primary human monocytes were primed with 1 μg/mL ultrapure LPS and 1μg/mL Pam3CSK4 for 3 h. THP-1 cells were primed with 1 μg/mL Pam3CSK4 for 4 h. Primed cells (1 × 10^5) were treated for 1 h with DMSO vehicle, 5 μM LDC7559 (unless indicated otherwise), 10 μM MCC950, or 50 μM VX765, and then for 1 h with 10 μg/mL nigericin, or 25 μg/mL LPS (electroporated using the NEON electroporation system; ThermoFisher Scientific), or they were transfected over 3 h with 1 μg/mL poly(dA-dT) using lipofectamine 2000 (0.5 μL/well).
LDH released into the culture medium was measured 1-3 h post-activation using a CellTox Green Cytotoxicity assay (Promega). IL-1β secretion was measured using a MSD Cytokine Assay, 96-well multi-array Tissue Culture Kit (Meso Scale Discovery). For immunoblotting, monocytes (2 × 10^6) were treated with 10-50 μM LCD7559 or 50 μM VX765 and electroporated with 25 μg/mL LPS using the NEON electroporation system. Cells were lysed after 1 h using lysis buffer (50 mM Tris pH 7.4, 150 mM NaCl, 10% glycerol, 1% NP-40, 1 mM MgCl and 1X Roche cOmplete protease inhibitor cocktail) and protein concentration was determined via BCA protein assay (Peirce). Antibodies for immunoblotting were GSDMD (L60, Cell Signaling Technologies), cleaved GSDMD-Asp275 (E7H9G, Cell Signaling Technologies) and GAPDH (14C10, Cell Signaling Technologies).

PFKL = target: T1, PFKL (Homo sapiens, UniProt P17858); test: Thermal proteome profiling (TPP) of neutrophil lysates; type: binding; conditions: 10 μM NA-11, 37°C to 65°C
T1 construct: endogenous in cells; host or cells: THP-1 cell lysate
T1 sequence (P17858 2-780 limits assumed): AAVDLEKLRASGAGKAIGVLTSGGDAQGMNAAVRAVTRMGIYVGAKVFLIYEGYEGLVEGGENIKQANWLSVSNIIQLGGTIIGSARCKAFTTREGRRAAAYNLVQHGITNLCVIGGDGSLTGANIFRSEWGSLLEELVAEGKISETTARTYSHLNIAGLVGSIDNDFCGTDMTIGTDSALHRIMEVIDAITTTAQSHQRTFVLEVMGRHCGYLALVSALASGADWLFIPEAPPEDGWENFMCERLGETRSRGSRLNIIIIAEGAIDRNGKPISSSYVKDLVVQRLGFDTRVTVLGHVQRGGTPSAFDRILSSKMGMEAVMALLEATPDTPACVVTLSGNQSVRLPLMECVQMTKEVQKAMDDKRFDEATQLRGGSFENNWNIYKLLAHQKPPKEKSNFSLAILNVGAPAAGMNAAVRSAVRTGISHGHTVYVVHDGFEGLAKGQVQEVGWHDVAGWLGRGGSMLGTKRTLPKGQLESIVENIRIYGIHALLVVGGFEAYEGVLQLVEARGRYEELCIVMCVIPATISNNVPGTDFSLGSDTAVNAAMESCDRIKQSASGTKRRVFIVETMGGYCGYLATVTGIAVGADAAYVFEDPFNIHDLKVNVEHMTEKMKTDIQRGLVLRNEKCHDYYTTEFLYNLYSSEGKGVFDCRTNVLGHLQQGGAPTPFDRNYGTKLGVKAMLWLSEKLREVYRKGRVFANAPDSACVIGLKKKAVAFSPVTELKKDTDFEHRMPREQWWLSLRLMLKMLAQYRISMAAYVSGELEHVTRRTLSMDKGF
Procedure: Neutrophils (3 × 10^7) were treated with 50 nM PMA for 20 min. Cell were washed twice in D-PBS, resuspended in KB buffer (25 mM Tris-HCL pH 7.5, 1 mM DTT, 10 mM MgCl2) and frozen in liquid nitrogen. Lysates were prepared by 5-7 freeze-thaw cycles in KB buffer. Protein concentration was determined via Bradford assay and lysates were incubated on ice for 30 min with either 10 μM NA-11 or DMSO vehicle. Samples were analyzed in two formats: (1) classical thermal proteome profiling (TPP) with full melting curves using 16-plex TMT labeling (8 temperatures between 37-65°C), and (2) Proteome Integral Solubility Alteration (PISA) assay with aggregated protein abundance from a defined temperature range using 10-plex TMT labeling (Five replicates 44-58°C). […]
For the classical TPP, quantitative data from each temperature were used to generate a thermal titration curve and calculate a melting point. PSM level quantitation was log2 transformed and summarized to protein level by aggregating all PSMs from the same primary Uniprot reference, and systematic variation between the treatments was normalized at each temperature. […] A quality score is calculated for each protein by evaluating R squares, curve slopes and similarity in slopes between the two fitted curves. […] Fold changes and p values were calculated between pre-defined treatment groups by the MSstats package. […]

## COc1ccccc1-c1cc2n(n1)Cc1ccc(NC(C)=O)cc1OC2 [LDC7559, reference compound]
[1]
  GSDMD-dependent pyroptosis (LDH release): did not alter GSDMD-dependent pyroptosis

## CC(=O)Nc1ccc2c(c1)OCc1cc(-c3ccccc3C#CCCCO)nn1C2 [NA-11]
PFKL
  thermal shift in melting temperature (Tm) of PFKL: 4 °C
